The values that follow come from patent US9289505B2, “Compositions and methods for delivering nucleic acid molecules and treating cancer” (Rutgers, The State University of New Jersey, priority 2010, dated 2016).

Non-standard residues stand in square brackets, D forms with d. No end group written: not given here. d = 2'-deoxy (DNA); r = 2'-OH (RNA)

The subject of one data set is BCL2 gene. As to the kind of experiment: BCL2 gene expression, RT-PCR. It is filed as cell-based, human. The conditions noted are these: A2780 cells, BCL2 siRNA 1 μM delivered by the named carrier, 24 hours. Here is the method:
Reverse transcription-polymerase chain reaction (RT-PCR) was used for the analysis of gene expression (Pakunlu et al. (2004) Cancer Res., 64:6214-6224). […] After 24 hours, total cellular RNA was isolated using an RNeasy kit (Qiagen, Valencia, Calif.). […] After synthesis, the reaction mixture was immediately subjected to polymerase chain reaction (PCR), which was carried out using […] System 2400 (Perkin-Elmer, Shelton, Conn.). β2-microglobulin (β2-m) was used as an internal standard. The following pairs of primers were used: BCL2: [NT] (sense; SEQ ID NO: 6), [NT] (antisense; SEQ ID NO: 7); β2-m (internal […] (sense; SEQ ID NO: 8), [NT] (antisense; SEQ ID NO: 9). PCR regimen was as follows: 94° C. for 5 minutes; 94° C. for 1 minute, 55° C. for 1 minute, and 72° C. for 1 minute for 41 cycles; and 60° C. for 10 minutes. PCR products were separated in 4% NuSieve 3:1 Reliant-agarose gels (Lonza, Basel, Switzerland) in 1× Tris-borate EDTA buffer [0.089 mol/L Tris-borate, 0.002 mol/L EDTA (pH 8.3); Research Organics Inc., Cleveland, Ohio] by submarine electrophoresis. The gels were stained with EtBr and digitally photographed.

The test system of data set [1] is xenografts of human malignant ascites (ovarian carcinoma). In words: In vivo antitumor activity in mice bearing xenografts of human malignant ascites. The conditions noted are these: intraperitoneal treatment max 8 times within 30 days; DOX 2.5 mg/kg, CIS 2.5 mg/kg. How it is done:
All mice received cancer cells from the same patient. When the tumors reached a size of about 0.3 cm^3 (15-20 days after transplantation), mice were treated intraperitoneally with the following formulations: (1) Saline (untreated control); (2) Liposomes (Lip); (3) LHRH; (4) DOX; (5) Lip-DOX; (6) Lip-DOX-BCL2 ASO; (7) Lip-DOX-MDR1 ASO; (8) Lip-DOX-BCL2-MDR1 ASO; (9) LHRH-Lip-DOX-BCL2-MDR1 ASO; (10) CIS; (11) Lip-CIS; (12) Lip-CIS-BCL2 ASO; (13) Lip-CIS-MDR1 ASO; (14) Lip-CIS-BCL2-MDR1 ASO; (15) LHRH-Lip-CIS-BCL2-MDR1 ASO; (16) DOX+CIS; (17) Lip-DOX+Lip-CIS; (18) Lip-DOX-BCL2 ASO+Lip-CIS-BCL2 ASO; (19) Lip-DOX-MDR1 ASO+Lip-CIS-MDR1 ASO; (20) Lip-DOX-BCL2-MDR1 ASO+Lip-CIS-BCL2-MDR1 ASO; (21) LHRH-Lip-DOX-BCL2-MDR1 ASO+LHRH-Lip-CIS-BCL2-MDR1 ASO. […] The animals were treated maximum 8 times over four weeks and the development of primary tumor and intraperitoneal metastases was monitored by fluorescent IVIS (Xenogen, Alameda, Calif.) and ultrasound Vevo 2100 (VisualSonics, Toronto, Canada) imaging systems. To initiate bioluminescence of cancer cells, 1× substrate/reaction buffer (Clontech, Mountain View, Calif.) was diluted 1:20 with DPBS and 100 μl of the solution was injected into each mouse. The bioluminescent images were taken 10 minutes after the injection of the substrate. The size of primary tumor was measured by a caliper. At the end of the experiments, tumors and ascites were excised and their mass was measured. Animal weight was evaluated every day during the treatment period. Changes in tumor size were used as an overall marker for antitumor activity.
(In general: A xenograft is tissue or cells of one species grown in another, often human tumour cells in immunodeficient mice.)

Another data set concerns BCL2 mRNA. As to the kind of experiment: BCL2 gene expression in subcutaneous tumors, quantitative RT-PCR. It is filed as in vivo, human. The following applies: treated 8 times within 30 days, vs untreated control. Here is the method:
(§1) The expression of MDR1 and BCL2 genes was measured using a quantitative RT-PCR as previously described (Pakunlu et al. (2006) J. Control. Rel., 114:153-162). Gene expression was calculated as a percent of internal standard (β2-microglobulin). To identify the presence of BCL2, P-glycoprotein and Caspase 3 (CASP3) proteins, the immunohistochemical staining of paraffin-embedded tumor tissue slides was carried out. For BCL2 and CASP3, slides were deparaffinized in xylene for 5 min followed by progressive rehydration in 100%, 95%, 70% and 50% ethanol for 3 minutes during each step. Endogenous peroxidase activity was blocked by incubating slides in 3% H2O2 solution in methanol at room temperature for 10 minutes and washing in 300 ml PBS two times for 5 minutes. Slides then were stained with anti-mouse monoclonal antibodies for BCL2 conjugated with FITC (1:200 dilution; BioLegend, catalog number 633502, San Diego, Calif.) and for CASP3 conjugated with Alexa Flour 647 (1:200 dilution; BioLegend, catalog number 622702, San Diego, Calif.) by incubating for an hour, washed in 300 ml PBS two times for 5 minutes and analyzed by fluorescence microscopy. To identify the expression of P-glycoprotein, after deparaffinization and rehydration, the slides were stained using Vector® M.O.M. Immunodetection Kit (Vector Laboratories, Inc., Burlingame, Calif.). Mouse monoclonal antibody to P-glycoprotein (ab3366, 1:40 dilution) obtained from Abcam (Cambridge, Mass.) was used as primary antibody for the detection of P-glycoprotein. Biotinylated anti-mouse IgG Reagent (1:250 dilution, Vector Laboratories, Inc., Burlingame, Calif.) and HSP-Streptavidine Detection System (1:500 dilution, Vector Laboratories, Inc., Burlingame, Calif.) in combination with DAB substrate kit (Vector Laboratories, Inc., Burlingame, Calif.) for peroxidase were used for visualization. After staining, the slides were examined by light microscopy and photographed.

Another data set concerns MDR1 mRNA. As to the kind of experiment: MDR1 gene expression in subcutaneous tumors, quantitative RT-PCR. Type of data set: in vivo, human. The conditions noted are these: treated 8 times within 30 days, vs untreated control. How it is done:
as §1

Data set [2] has as its system tumor and malignant ascites. In words: Apoptosis induction in tumor and malignant ascites (cell death detection ELISA). It is filed as in vivo, mice. The conditions noted are these: histone-complexed DNA fragments. How it is done:
(§2) Induction of apoptosis was analyzed by the measurement of the enrichment of histone-associated DNA fragments (mono- and oligo-nucleosomes) in homogenates of the tumor, malignant ascites and other organs (liver, kidney, lung, heart and brain) using anti-histone and anti-DNA antibodies by a cell death detection ELISA Plus kit (Roche, Nutley, N.J.) as previously described (Pakunlu et al. (2004) Cancer Res., 64:6214-6224; Dharap et al. (2005) Proc. Natl. Acad. Sci., 102:12962-12967; Dharap et al. (2003) Pharm. Res., 20:889-896).

The next data set relates to Caspase 3. In words: Immunohistochemical staining of tumor tissue for Caspase 3. Type of data set: in vivo, human. The following applies: tumor tissue sections. Here is the method:
as §1, with “Mouse monoclonal antibody to P-glycoprotein (ab3366, 1:40 dilution) obtained from Abcam (Cambridge, Mass.) was used as primary antibody for the detection of P-glycoprotein. Biotinylated anti-mouse IgG Reagent (1:250 dilution, Vector Laboratories, Inc., Burlingame, Calif.) and HSP-Streptavidine Detection System (1:500 dilution, Vector Laboratories, Inc., Burlingame, Calif.) in combination with DAB substrate kit (Vector Laboratories, Inc., Burlingame, Calif.) for peroxidase were used for visualization. After staining, the slides were examined by light microscopy and photographed.” left out

Data set [3] concerns subcutaneous tumor xenografts of human A549 cancer cells. In words: Antitumor activity in subcutaneous A549 xenografts. The conditions noted are these: intratumoral 3 times within 10 days.
Protocol: NCR nude mice (female, 6 weeks, 20 g) were purchased from Taconic Farms, Inc. (Germantown, N.Y.). […] Briefly, A549 human cancer cells transfected with luciferase (5×10^6) were subcutaneously transplanted into the flanks of female athymic nu/nu mice. According to the approved institutional animal use protocol, the tumors were measured by a caliper every other day and their volumes were calculated as d^2×D/2 where d and D are the shortest and longest diameter of the tumor in mm, respectively. When the tumor reached a mean size of 50 mm^3, mice were divided into seven groups and injected intratumorally 3 times within 10 days with 150 μL of the following formulations: (1) saline (control); (2) free non-bound LHRH; (3) free non-bound siRNA; (4) free non-bound CIS; (5) Mixture of CIS and SPIO-PPI G5; (6) Mixture of CIS and SPIO-PPI G5-siRNA; and (7) Mixture of CIS and SPIO-PPI G5-siRNA-PEG-LHRH complexes. The concentrations of CIS and siRNA in the formulations were 2.5 mg/kg and 30 μM, respectively. Changes in tumor size were monitored by real-time bioluminescence in anesthetized animals by IVIS imaging system (Xenogen Bioscience, Cranbury, N.J.).
Data set [4] in a line: Maximum tolerated dose from animal weight change. Type of data set: in vivo. The conditions noted are these: mice; estimated from animal weight change after injection of increasing doses.
Data set [5] deals with healthy organs (liver, kidney, spleen, heart, lung and brain). In words: Apoptosis induction in healthy organs (cell death detection ELISA). Type of data set: in vivo, mice. Here is the method:
as §2
(In general: An ELISA detects its analyte on a solid surface through an enzyme-linked reagent.)

Take “sense strand, 5′-CCU CGG GCU GUG CUC UUU U-dTdT-3′, SEQ ID NO: 10; antisense strand, 5′-AAA AGA GCA CAG CCC GAG G-dTdT-3′, SEQ ID NO: 11 (sense CCUCGGGCUGUGCUCUUUUTT; antisense AAAAGAGCACAGCCCGAGGTT; sugars from the 5' end r19 d2, backbone not given here) [naked non-specific siRNA, non-specific siRNA used as a negative control]”: the “expression of targeted BCL2 gene, from control value” with BCL2 gene is on record as “did not influenced”.
Consider `N.N.[Cl][Pt][Cl]` [CIS, cisplatin], for which, in [1], the “development and mass of intraperitoneal metastases and malignant ascites” value was “more effective in limiting the growth of both primary tumor and malignant ascites when compared to corresponding DOX formulations”; the “growth of primary subcutaneous tumor (volume)” value (from here on “growth … (volume)”) is “more effective in limiting the growth of both primary tumor and malignant ascites when compared to corresponding DOX formulations”. Also, the “expression of BCL2 gene” value with BCL2 mRNA is recorded as “statistically significant overexpression”. Moreover, the “expression of MDR1 gene” value in the data set on MDR1 mRNA is “statistically significant overexpression”. Moreover, the “apoptosis induction in tumor and malignant ascites” value in data set [2] was “induced apoptosis”. The “expression/activation of caspase 3” value in the data set with Caspase 3 is on record as “activated caspase 3”. Further, the “decrease of tumor volume/growth compared with untreated control” value in data set [3] (last day of treatment, CIS 2.5 mg/kg, siRNA 30 μM) came out at 36.2%. Further, the maximum tolerated dose in [4] is 2.5 mg/kg.
As to “Lys6-des-Gly10-Pro9-ethylamide (Gln-His-Trp-Ser-Tyr-DLys-Leu-Arg-Pro-NH-Et; SEQ ID NO: 3) (QHWSY[dK]LRP-NHEt) [LHRH]”, in data set [1], the “development and mass of intraperitoneal metastases and malignant ascites” value is recorded as “did not influence”; the “growth … (volume)” value was “did not influence”. Besides, the “expression of BCL2 gene” value in the data set on BCL2 mRNA was “did not change significantly”. In data set [5], the “apoptosis induction in healthy organs” value is “did not induce detectable levels of apoptosis”. Besides, the “expression of MDR1 gene” value in the data set with MDR1 mRNA is “did not change significantly”. For the same molecule, the “apoptosis induction in tumor and malignant ascites” value in [2] is recorded as “did not induce detectable levels of apoptosis”. Further, the “tumor growth / antitumor activity” value in data set [3] was “did not significantly influence the growth of the tumor”.
As for `COc1cccc2c1C(=O)c1c(O)c3c(c(O)c1C2=O)C[C@@](O)(C(=O)CO)C[C@@H]3O[C@H]1C[C@H](N)[C@H](O)[C@H](C)O1` [DOX, doxorubicin], the “growth … (volume)” value in data set [1] is “slowed down the growth”. The “expression of BCL2 gene” value in the data set on BCL2 mRNA is reported as “statistically significant overexpression”. Also, the “expression of MDR1 gene” value with MDR1 mRNA is “statistically significant overexpression”. The “apoptosis induction in tumor and malignant ascites” value in [2] is “induced apoptosis”. Moreover, the “expression/activation of caspase 3” value in the data set on Caspase 3 is “activated caspase 3”. Moreover, the maximum tolerated dose in data set [4] is given as 2.5 mg/kg.
